Results on three compounds are retold here after article PMC2794939 (Biochemistry, 2009).

The subject of the assay is influenza virus A/M2-V27A/L38F. Format: cell-based, Influenza A/Udorn/72 virus (recombinant mutant).
With `NC12CC3CC(CC(C3)C1)C2` [Amantadine, amantadine], the Plaque count was 82 plaques/well; the “effect on plaque formation (count and size)” value (“effect on plaque formation” below) is given as “failed to inhibit plaque formation”.

For `C1CCC2(CC1)CCN(C1=NCCN1)CC2` [BL-1743, 2-[3-azaspiro([5],[5])undecanol]-2-imidazoline], the Plaque count was found to be 86 plaques/well; the “effect on plaque formation” value is “failed to inhibit plaque formation”.

For the compound `NC1CCC2(CCCCC2)CC1` [Compound 8, spiro[5.5]undecan-3-amine], the Plaque count amounted to 37 plaques/well; the “effect on plaque formation” value is given as “reduced”.
